{"source": "patent US10227356B2", "about": "“Compounds, compositions and methods for inhibiting CNKSR1” (Phusis Therapeutics, Inc., priority 2015, dated 2019)", "biological_target": "T1, PLEKHA7 PH-domain (Homo sapiens, UniProt Q6IQ23)", "T1 construct": "The plekstrin homology domain of CNK and PLEKHA7 expressed with GST at the N-terminus; made in house", "T1 sequence (Q6IQ23 164-282 limits assumed)": "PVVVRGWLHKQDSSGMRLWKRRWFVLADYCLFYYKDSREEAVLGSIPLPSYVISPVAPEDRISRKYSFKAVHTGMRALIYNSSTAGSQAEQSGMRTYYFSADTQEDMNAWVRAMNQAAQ", "test": "Surface plasmon resonance binding to PLEKHA7 PH-domain", "details": "SPR; read-out: PLEK KD", "description": "The plekstrin homology domain of CNK and PLEKHA7 expressed with GST at the N-terminus, CNK(PH)-GST were immobilized on a CM5 chip. Analysis of potential small molecule drug binding was done using a Biacore T200. Immobilization of antibody was run at 37° C. and a flow rate of 5 μL/min. A freshly prepared mixture of aqueous 0.4M 1-ethyl-3-(3-dimethylaminopropyl)carbodiimide hydrochloride (EDC) and aqueous 0.1M N-hydroxysuccinamide (NETS), (0.2M/0.05M EDC/NHS solution) is injected for 480 seconds over a conditioned (Tanious, et al doi:10.1016/50091-679X(07)84003-9) CM5 chip flow cell. The activated surface is then injected at 37° C., flow rate of 5 μL/min for 480 sec with 30 μg/mL anti-GST antibody, freshly suspended in pH 5.0 10 mM acetate buffer. Expected capture is 12000-20000 response units (RU). The remaining active surface is deactivated with 480 sec injections of 0.1M ethylenediamine in borate buffer (GE Healthcare) and then 1M ethanolamine pH 8.5 to provide 10000-18000 RU of covalently linked antibody on the flow cell. An upstream reference flow cell (Fc1) and a downstream working flow cell (Fc2) are prepared in this manner. […] Binding responses were determined 4 seconds prior to the conclusion of the injection. […]", "data": [{"compound": "CCOC(=O)/C=C/c1cc(NS(=O)(=O)c2cccs2)c2c(c1O)OCO2", "note": "[Compound 88, (E)-ethyl 3-(4-hydroxy-7-(thiophene-2-sulfonamido)benzo[d][1,3]dioxol-5-yl)acrylate]", "values": [{"measurement": "Kd", "result": 261, "unit": "µM"}]}]}
